The values below come from patent publication US5328913A, “Minoxidil analogs as inhibitors of cell proliferation and lysyl hydroxylase” (priority 1992, dated 1994).

pIC50: −log10 of the molar value.

Experiment [1] deals with lysyl hydroxylase. The experiment is described as follows: Lysyl hydroxylase activity in extracts of treated human skin fibroblasts (Example 2, pyridine, triazine and N-alkyl analogs). Format: cell-based. On the procedure:
Cells were treated for 72 hr with minoxidil or its triazine analog at the indicated concentrations. The enzyme activities in extracts of treated cells were measured by tritium release assays (Murad and Pinnell, J. Biol. Chem. 262:11,973 (1987)) and are expressed as a percentage of zero-concentration values. PH, prolyl hydroxylase; LH, lysyl hydroxylase.
Cells were treated for 72 hr with various concentrations of minoxidil or its N-alkyl analogs as indicated. The enzyme activity in extracts of treated cells was measured by tritium release assays (Murad and Pinnell, J. Biol. Chem. 262:11,973 (1987)) and is expressed as a percentage of zero-concentration value. The minoxidil curve is reproduced from FIG. 4.
Cultures of human skin fibroblast (1.5×10^6 cells) were seeded onto 100-mm plates and incubated at 37° in Dulbecco's modified Eagle's medium supplemented with 20% calf serum. After 24 hr, the medium was replaced with medium supplemented with 0.5% heat-inactivated dialyzed calf serum. The incubation was continued for an additional 72 hr in the presence of 0.1-2 μM minoxidil analogs dissolved in 0.12N HCl; the final concentration of HCl was 0.0012N or 0.0024N. Cells treated with HCl only served as control. During the last 3 hr of incubation, cells received […] ascorbic acid to ensure complete hydroxylation of the polypeptide precursors of procollagen (Murad et al, J. Invest. Dermatol. 75:404 (1980)). At the end of the incubation period, cells were harvested by trypsinization and disrupted by sonication in a buffered medium (Murad et al, J. Biol. Chem. 262:11,973 (1987)).
Lysyl hydroxylase activity in extracts of treated cells was measured with an underhydroxylated procollagen substrate (Murad et al, J. Biol. Chem. 262:11,973 (1987)), which was prepared by labeling cultures of human skin fibroblasts with L-[4,5-^3 H]lysine in the presence of an iron chelator α,α'-dipyridyl (Murad and Pinnell, Conn. Tiss. Res. 13:181 (1985)). The amount of tritium released was quantitated as ^3 HO after vacuum distillation . Prolyl hydroxylase activity was similarly measured with an underhydroxylated procollagen substrate containing L-[4-^3 H]proline (Murad and Pinnell, J. Biol. Chem. 262:11973 (1987); Murad and Pinnell, Conn. Tiss. Res. 13:181 (1985)). The enzyme activities are based on a unit of soluble cell protein. The protein content of cell extracts was determined by a dye-binding techniques using Bio-Rad reagents (Bradford, Anal. Biochem. 72:248 (1976)).
Cells were treated for 72 hr with 1 mM minoxidil or its
structural analogs as indicated. The enzyme activity in extracts
of treated cells was measured by a tritium-release assay and is
expressed as a percentage of HCl-treated control.

The test system of experiment [2] is lysyl hydroxylase. Nature of the experiment: Lysyl hydroxylase activity in fibroblasts treated with minoxidil and its hydroxy derivatives (Example 3). Format: cell-based, human. Conditions: for Fibroblast Lysyl Hydroxylase Activity: 48 hr. Here is the method: Culture of human skin fibroblasts derived from an apparently normal adult were grown to confluent densities in Dulbecco's modified Eagle's medium supplemented with 10% (v/v) fetal calf serum. Thereafter, the medium was replaced with medium supplemented with 0.5% dialyzed fetal calf serum. […] In some experiments, minoxodil was dissolved in 95% (v/v) ethanol; the final concentration of minoxidil was 0.3 mM and that of ethanol was 0.3%. Cultures treated with ethanol only served as the control.
(§1) During the last 3 hr of treatment, cultures received 100 μM ascorbic acid. The enzyme activities in extracts of treated cells were measured by tritium-release assays described previously (Murad and Pinnell, J. Biol. Chem. 262:11,973 (1987)).

The next experiment relates to prolyl hydroxylase. Nature of the experiment: Prolyl hydroxylase activity in fibroblasts treated with minoxidil and its hydroxy derivatives (Example 3). Format: cell-based, human. The following applies: 1 mM. On the procedure:
Culture of human skin fibroblasts derived from an apparently normal adult were grown to confluent densities in Dulbecco's modified Eagle's medium supplemented with 10% (v/v) fetal calf serum. Thereafter, the medium was replaced with medium supplemented with 0.5% dialyzed fetal calf serum. The cultures were treated for 72 hr with 1 mM minoxidil, 3'- hydroxyminoxidil,or 4'-hydroxyminoxidil (Upjohn) dissolved in aqueous medium. In some experiments, minoxodil was dissolved in 95% (v/v) ethanol; the final concentration of minoxidil was 0.3 mM and that of ethanol was 0.3%. Cultures treated with ethanol only served as the control.
as §1

Experiment [3] relates to Collagen Synthesis in Human Skin Fibroblasts. The experiment is described as follows: Collagen synthesis in human skin fibroblasts. Conditions: 1 mM, 72 hr. Format: cell-based. Here is the method: Culture of human skin fibroblasts derived from an apparently normal adult were grown to confluent densities in Dulbecco's modified Eagle's medium supplemented with 10% (v/v) fetal calf serum. Thereafter, the medium was replaced with medium supplemented with 0.5% dialyzed fetal calf serum. The cultures were treated for 72 hr with 1 mM minoxidil, 3'- hydroxyminoxidil,or 4'-hydroxyminoxidil (Upjohn) dissolved in aqueous medium. In some experiments, minoxodil was dissolved in 95% (v/v) ethanol; […]. Cultures treated with ethanol only served as the control.
During the last 6 hr of treatment, cultures were labeled with 20 μCi of L-[2,3-^3 H]proline in 1 ml of medium supplemented with 100 μM ascorbic acid. The amount of proline radioactivity incorporated into collagen in the medium and cells combined was measured after digestion with a bacterial collagenase, essentially as described previously (Freiberger et al, J. Invest. Dermatol. 75:425 (1980)).

Another experiment deals with human skin fibroblasts. Conditions: background; cited from earlier work.
The conditions of experiment [4]: in vivo; cited from earlier work.

`Nc1cc(N2CCCCC2)nc(N)[n+]1[O-]` [Minoxidil]: in the experiment with lysyl hydroxylase [1] (1 mM, 72 hr), the “decrease of the activity of lysyl hydroxylase” value is 73%. In the experiment on lysyl hydroxylase [1] (1 mM, 72 hr, % of HCl-treated control (Table III)), the “Lysyl hydroxylase activity (%)” value turned out to be 27%. In addition, in the experiment with lysyl hydroxylase [1] (72 hr (FIG. 4, FIG. 5), read-out: concentration giving 50% inhibition (lysyl hydroxylase)), the pIC50 was 3.70. For the same molecule, the “Fibroblast Lysyl Hydroxylase Activity” value was 378 cpm^3 H2 O/mg protein with lysyl hydroxylase [2] (1 mM) and 1321 cpm^3 H2 O/mg protein in the experiment on lysyl hydroxylase [2] (5 mM). Besides, the “Lysyl hydroxylase activity, % of control level” value with lysyl hydroxylase [2] (1 mM, 72 hr) was found to be 25%. For the same molecule, the “Lysyl Hydroxylase Activity” value is given as 308 cpm ^3 H2 O/mg protein in the experiment on lysyl hydroxylase [2] (1 mM, 72 hr (Table VI)) and 308 cpm^3 H2 O/mg protein in the experiment on lysyl hydroxylase [2] (1 mM, 72 hr (description table)). In the experiment on lysyl hydroxylase [2] (5 mM), the “lysyl hydroxylase suppressing activity at 5 mM (in words)” value is “loses its effect”. Also, the “prolyl hydroxylase activity (in words)” value in the experiment on prolyl hydroxylase (72 hr) was “remained unchanged”. The “Prolyl Hydroxylase Activity” value in the experiment with prolyl hydroxylase (72 hr (Table VI)) was 29446 cpm ^3 H2 O/mg protein; with prolyl hydroxylase (72 hr (description table)) it was 29446 cpm^3 H2 O/mg protein. The “% Collagen Synthesized” value in experiment [3] (mean ± SD of duplicate analysis of two cultures (Table VII)) came to 6.6 ± 0.7%. In experiment [3] (Homo sapiens, Skin fibroblast, compared with control, read-out: reduction of synthesis of collagen relative to that of total protein), the inhibition at 1000 µM is 25%. Moreover, the “inhibition of serum-induced proliferation of fibroblasts in culture (in words)” value with human skin fibroblasts was “capable of inhibiting the serum-induced proliferation of fibroblasts in culture”. For the same molecule, in experiment [4], the “antihypertensive / hypotensive activity (in words)” value is “hypotensive activity”.
